The results in this text go back to doi:10.1101/838656v1 (biorxiv, 2019).

Where two headings read alike, the source gives them in different places. Where only a bound is given, the exact number is not on record here.

The nature of one series: in vitro. Conditions: human, a431 cells.
For series [1], the system named is HMGA2 (mammalian high mobility group protein AT-hook 2). As to conditions: read-out: Alpha Screen IC50; DNA-binding compound; inhibitor.
In series [2] the target is BRD4-BD1 (bromodomain-containing protein 4) (Homo sapiens, UniProt O60885). The experiment in a line: biochemical.
Series [3] has as its system HMGA2 (mammalian high mobility group protein AT-hook 2). Conditions: read-out: Lance Screen IC50; DNA-binding compound; inhibitor.

A word on the CC50: it is the concentration at which the toxic effect on the cells reaches its halfway point. As usually defined, the IC50 is the midpoint of a concentration-inhibition curve. Regarding `COc1cccc2c1C(=O)c1c(O)c3c(c(O)c1C2=O)C[C@@](O)(C(C)=O)C[C@@H]3O[C@H]1C[C@H](NCc2ccc(CN[C@@H]3C[C@@H](O[C@H]4C[C@](O)(C(C)=O)Cc5c(O)c6c(c(O)c54)C(=O)c4c(OC)cccc4C6=O)O[C@H](C)[C@@H]3O)cc2)[C@H](O)[C@H](C)O1` [WP631], half-maximal cytotoxicity in “in vitro” (CC50) was put at 0.17 µM. Also, the results for the IC50 in series [1], in series [2] and in series [3] were 0.044 µM, 2.05 µM and 0.17 µM, respectively.
With `O=C1c2c(O)ccc(O)c2C(=O)c2c(NCCNCCO)ccc(NCCNCCO)c21` [Mitoxantrone], the CC50 in “in vitro” was found to be 1.65 µM. The IC50 is 0.18 µM in series [1], 0.99 µM in series [2] and 1.77 µM in series [3].
In “in vitro”, `Cc1ccc(C(=O)Nc2ccc(S(=O)(=O)O)c3cc(S(=O)(=O)O)cc(S(=O)(=O)O)c23)cc1NC(=O)c1cccc(NC(=O)Nc2cccc(C(=O)Nc3cc(C(=O)Nc4ccc(S(=O)(=O)O)c5cc(S(=O)(=O)O)cc(S(=O)(=O)O)c45)ccc3C)c2)c1` [suramin] yielded a CC50 of over 100 µM. Further, the IC50 in series [2] is over 100 µM.
The compound `O=C(O)C1=CC(=C(c2ccc(O)c(C(=O)O)c2)c2ccc(O)c(C(=O)O)c2)C=CC1=O` [aurintricarboxylic acid] showed a CC50 in the series “in vitro” of over 100 µM. Half-maximal inhibition in series [2] (IC50) was put at 5 µM.
The matching figures for `Nc1ccc(-c2nc3ccc(-c4nc5ccc(N)cc5[nH]4)cc3[nH]2)cc1` [Ro 90-7501]: over 100 µM and 16.9 µM.
